Results as given in patent US20220089602A1, “COMPOUNDS THAT INDUCE FERROPTIC CELL DEATH” (The Board of Trustees of the University of Illinois, priority 2019, published 2022).

System: HCT 116 cells
Test: In-gel fluorescence proteome labeling
Type: cell-based
Conditions: 30 min dose-dependent treatment
Description: Cells were harvested by centrifugation (500×g, 3 min), washed with PBS, and resuspended in RIPA lysis buffer (50 mM Tris, 150 mM NaCl, 1% Triton X-100, 0.5% sodium deoxycholate, 0.1% SDS, pH=7.4) containing 1× protease inhibitor cocktail on ice. Protein concentration was determined by the Bradford assay and lysates were stored at −20° C. until further use. Samples were resolved in a 4-20% SDS-PAGE gel (Bio-Rad) at 120 V for 70 min. After PBS washes, each gel was scanned for fluorescence signal using a Molecular Dynamics Typhoon 9400 Multilaser Scanner at the Proteomics Center at UIUC (excitation at 526 nm, green laser, high sensitivity, 530 pmt). Gels were then treated with Coomassie Blue stain (Imperial Stain, ThermoFisher) via shaking for 45 min to stain for the total protein content. Upon proteome labeling, gels were destained for 15 min-overnight on MilliQ H2O followed by imaging in a Gel Dox XR+ from Bio-Rad (ex. 470 nm, UV High filter).

**Q.** With `CC1=CC(C)=[N+]2C1=Cc1ccc(CCC(=O)NCCCn3cc(CN4C(=O)C5CC=C([C@@H]6C[C@@H](OC(=O)CI)[C@]7(C)[C@H](C)CC[C@]8(C[C@H](O)C(=O)[C@]87O)[C@H]6C)CC5C4=O)nn3)n1[B-]2(F)F` (stereo partly shown) [Compound P31] as the compound, how does the proteome labeling selectivity read?
**A.** Promiscuous bioactivity
